Some results are limits rather than exact numbers.

Holding throughout (assay type): cell-based
Test [1] deals with PRMT5 (SDMA) in HAP1 MTAP-deleted cell line. As to the kind of experiment: SDMA in-cell western assay, HAP1 MTAP-deleted cell line. To be noted: for IC50 / IC90: Homo sapiens, SDMA in-cell western, HAP1 MTAP-deleted (MTAP-null) cell line; for Hap1 MTAP intact/deleted ratio: ratio of SDMA in-cell western IC50 in HAP1 MTAP-intact to IC50 in HAP1 MTAP-deleted cell line. From the text:
(§1) HAP1 MTAP-intact is a cell line in which endogenous levels of MTAP are expressed, and HAP1 MTAP-deleted is an MTAP-null cell line.

The subject of test [2] is HAP1 MTAP-deleted cell line. As to the kind of experiment: viability assay for the MTAP-deleted cell line. To be noted: Homo sapiens.
In test [3] the test system is PRMT5 (SDMA) in HAP1 MTAP-intact cell line. The test can be described thus: SDMA in-cell western assay, HAP1 MTAP-intact cell line. To be noted: Homo sapiens, HAP1 MTAP-intact cell line (endogenous MTAP), read-out: Hap 1 MTAP intact IC50.
From the text: as §1

As for `CCc1cc(NC(=O)C(=O)N2C[C@@H](C)N(C(=O)C(C)(C)C)C[C@@H]2c2ccc(F)cc2)cnc1N` [Compound 33, N-(6-amino-5-ethylpyridin-3-yl)-2-((2S,5R)-2-(4-fluorophenyl)-5-methyl-4-pivaloylpiperazin-1-yl)-2-oxoacetamide], in test [1], the IC50 is less than 0.005 µM, the IC90 was less than 0.075 µM and the “Hap1 MTAP intact/deleted ratio” value is reported as “C (an IC50 ratio of less than 15 fold)”. The compound also had an IC50 in test [2] of less than 0.1 µM. Further, the IC50 in test [3] fell in the range of 0.005 to 0.05 µM.

On to `Cc1cc(NC(=O)C(=O)N2C[C@@H](C)N(C(=O)C3(C)CCN(C)C3)C[C@@H]2c2ccccc2)cnc1N` (some centres unmarked) [Compound 34], for which, in test [1], the IC50 lay within 0.005 to 0.05 µM, the 90% effect concentration (IC90) was more than 0.125 µM and the “Hap1 MTAP intact/deleted ratio” value is “B (an IC50 ratio greater than or equal to 15 fold but lower than 30 fold)”. Also, the half-inhibitory concentration (IC50) in test [2] fell in the range of 0.1 to 1 µM. Moreover, the IC50 in test [3] was more than 0.05 µM.

`C[C@@H]1CN(C(=O)C(=O)Nc2cncc3cn[nH]c23)[C@@H](c2ccccc2)CN1C(=O)OC(C)(C)C` [Compound 35, tert-butyl (2R,5S)-2-methyl-4-[2-oxo-2-(1H-pyrazolo[4,3-c]pyridin-7-ylamino)acetyl]-5-phenyl-piperazine-1-carboxylate]: in test [1], the IC50 lay within 0.005 to 0.05 µM, the 90% effect concentration (IC90) was more than 0.125 µM and the “Hap1 MTAP intact/deleted ratio” value is given as “A (an IC50 ratio greater than or equal to 30 fold)”. In addition, the half-maximal inhibitory concentration (IC50) in test [2] was less than 0.1 µM. For the same compound, the concentration for half-maximal inhibition (IC50) in test [3] is more than 0.05 µM.

On to `CCc1cc(NC(=O)C(=O)N2C[C@@H](C)N(C(=O)C(C)(C)CN(C)C)C[C@@H]2c2ccccc2)cnc1N` [Compound 37], for which the IC50 is less than 0.005 µM in test [1], less than 0.1 µM in test [2] and more than 0.05 µM in test [3]. The compound further had an IC90 in test [1] of less than 0.075 µM. Besides, in test [1], the “Hap1 MTAP intact/deleted ratio” value is listed as “A (an IC50 ratio greater than or equal to 30 fold)”.

As for `Cc1cc(NC(=O)C(=O)N2C[C@@H](C)N(C(=O)C3(C(F)(F)F)CC3)C[C@@H]2c2ccc(F)c(F)c2)cnc1N` [Compound 38, N-(6-amino-5-methylpyridin-3-yl)-2-((2S,5R)-2-(3,4-difluorophenyl)-5-methyl-4-(1-(trifluoromethyl)cyclopropanecarbonyl)piperazin-1-yl)-2-oxoacetamide], in test [1], the IC50 was in the range of 0.005 to 0.05 µM, the IC90 lay in the range of 0.075 to 0.125 µM and the “Hap1 MTAP intact/deleted ratio” value is “C (an IC50 ratio of less than 15 fold)”. The concentration for half-maximal inhibition (IC50) in test [2] was less than 0.1 µM. In test [3], the IC50 was more than 0.05 µM.

On to `Cc1cccc([C@H]2CN(C(=O)C3(C)CC3)[C@H](C)CN2C(=O)C(=O)Nc2cnc(N)c(C)c2)c1` [Compound 40, N-(6-amino-5-methylpyridin-3-yl)-2-((2S,5R)-5-methyl-4-(1-methylcyclopropanecarbonyl)-2-(m-tolyl)piperazin-1-yl)-2-oxoacetamide], for which, in test [1], the IC50 lay in the range of 0.005 to 0.05 µM, the IC90 was more than 0.125 µM and the “Hap1 MTAP intact/deleted ratio” value is “C (an IC50 ratio of less than 15 fold)”. This compound showed a concentration for half-maximal inhibition (IC50) in test [2] of less than 0.1 µM. Also, the half-maximal inhibitory concentration (IC50) in test [3] was more than 0.05 µM.

With `CCc1cc(NC(=O)C(=O)N2C[C@@H](C)N(C(=O)C(C)C)C[C@@H]2c2cccc(N3CCN(C)CC3)c2)cnc1N` [Compound 41, N-(6-amino-5-ethylpyridin-3-yl)-2-((2S,5R)-4-isobutyryl-5-methyl-2-(3-(4-methylpiperazin-1-yl)phenyl)piperazin-1-yl)-2-oxoacetamide], in test [1], the concentration for half-maximal inhibition (IC50) is less than 0.005 µM, the IC90 is less than 0.075 µM and the “Hap1 MTAP intact/deleted ratio” value is recorded as “C (an IC50 ratio of less than 15 fold)”. The IC50 in test [2] is less than 0.1 µM. Further, the IC50 in test [3] lay in the range of 0.005 to 0.05 µM.

In the case of `C[C@@H]1CN(C(=O)C(=O)Nc2cncc3cn[nH]c23)[C@@H](c2ccccc2)CN1CC(C)(C)C` [Compound 44, 2-oxo-N-(1H-pyrazolo[4,3-c]pyridin-7-yl)-2-[(2S,5R)-4-(2,2-dimethylpropyl)-5-methyl-2-phenyl-piperazin-1-yl]acetamide], the 50% inhibitory concentration (IC50) in test [1] was less than 0.005 µM; in test [2], 0.1 to 1 µM; in test [3] it was more than 0.05 µM. Besides, in test [1], the concentration for an effect of 90% (IC90) is less than 0.075 µM. Moreover, in test [1], the “Hap1 MTAP intact/deleted ratio” value is on record as “A (an IC50 ratio greater than or equal to 30 fold)”.

For `C[C@@H]1CN(C(=O)C(=O)Nc2cnc(N)c3cn[nH]c23)[C@@H](c2ccc(F)cc2)CN1C(=O)C(C)(C)C` [Compound 46], the values for the half-maximal inhibitory concentration (IC50) in test [1], in test [2] and in test [3] were less than 0.005 µM, less than 0.1 µM and 0.005 to 0.05 µM, respectively. This compound showed an IC90 in test [1] of less than 0.075 µM. Further, in test [1], the “Hap1 MTAP intact/deleted ratio” value is on record as “C (an IC50 ratio of less than 15 fold)”.

For the compound `CCc1cc(NC(=O)C(=O)N2CCN(C(=O)C3(C(F)(F)F)CC3)C[C@@H]2c2ccc(F)c(Cl)c2)cnc1N` [Compound 47, N-(6-amino-5-ethyl-3-pyridyl)-2-[(2S)-2-(3-chloro-4-fluoro-phenyl)-4-[1-(trifluoromethyl)cyclopropanecarbonyl]piperazin-1-yl]-2-oxo-acetamide], in test [1], the half-inhibitory concentration (IC50) was more than 0.05 µM, the IC90 was more than 0.125 µM and the “Hap1 MTAP intact/deleted ratio” value is given as “C (an IC50 ratio of less than 15 fold)”. The compound further gave a half-inhibitory concentration (IC50) in test [2] of more than 1 µM. Further, the IC50 in test [3] was more than 0.05 µM.

In the case of `Cc1cc(NC(=O)C(=O)N2C[C@@H](C)N(C(=O)CC3(C)CC3)C[C@@H]2c2ccccc2)cnc1N` [Compound 49], in test [1], the half-inhibitory concentration (IC50) was in the range of 0.005 to 0.05 µM, the 90% effect concentration (IC90) is 0.075 to 0.125 µM and the “Hap1 MTAP intact/deleted ratio” value is “C (an IC50 ratio of less than 15 fold)”. Besides, the half-maximal inhibitory concentration (IC50) in test [2] fell in the range of 0.1 to 1 µM. Further, the half-inhibitory concentration (IC50) in test [3] is more than 0.05 µM.

On to `CC(=O)N1C[C@H](c2ccccc2)N(C(=O)C(=O)Nc2cnc(N)c3cn[nH]c23)C[C@H]1C` [Compound 52], for which, in test [1], the IC50 was 0.005 to 0.05 µM, the IC90 was less than 0.075 µM and the “Hap1 MTAP intact/deleted ratio” value is given as “B (an IC50 ratio greater than or equal to 15 fold but lower than 30 fold)”. The IC50 in test [2] was less than 0.1 µM. In test [3], the IC50 was more than 0.05 µM.

Turning to `C[C@@H]1CN(C(=O)C(=O)Nc2cnc(N)c3cn[nH]c23)[C@@H](c2ccccc2)CN1C(=O)C(C)(C)CN(C)C` [Compound 54, N-(4-amino-1H-pyrazolo[4,3-c]pyridin-7-yl)-2-oxo-2-[(2S,5R)-4-[3-(dimethylamino)-2,2-dimethyl-propanoyl]-5-methyl-2-phenyl-piperazin-1-yl]acetamide], in test [1], the IC50 was in the range of 0.005 to 0.05 µM, the IC90 is less than 0.075 µM and the “Hap1 MTAP intact/deleted ratio” value is recorded as “C (an IC50 ratio of less than 15 fold)”. The 50% inhibitory concentration (IC50) in test [2] is less than 0.1 µM. The IC50 in test [3] fell in the range of 0.005 to 0.05 µM.

Consider `C[C@@H]1CN(C(=O)C(=O)Nc2cncc3[nH]ncc23)[C@@H](c2ccccc2)CN1C(=O)C(C)(C)C` [Compound 55, 2-((2S,5R)-5-methyl-2-phenyl-4-pivaloylpiperazin-1-yl)-2-oxo-N-(1H-pyrazolo[3,4-c]pyridin-4-yl)acetamide], for which the IC50 in test [1] is 0.005 to 0.05 µM; in test [2] it was less than 0.1 µM; in test [3], more than 0.05 µM. Also, in test [1], the 90% effect concentration (IC90) lay in the range of 0.075 to 0.125 µM. Also, the “Hap1 MTAP intact/deleted ratio” value in test [1] is on record as “C (an IC50 ratio of less than 15 fold)”.

Regarding `C[C@@H]1CN(C(=O)C(=O)Nc2cnc(N)c3cn[nH]c23)[C@@H](c2ccccc2)CN1C` [Compound 57], in test [1], the IC50 is less than 0.005 µM, the IC90 is less than 0.075 µM and the “Hap1 MTAP intact/deleted ratio” value is given as “B (an IC50 ratio greater than or equal to 15 fold but lower than 30 fold)”. This compound came in with an IC50 in test [2] of less than 0.1 µM. For the same compound, the IC50 in test [3] was more than 0.05 µM.

Turning to `CCc1cc(NC(=O)C(=O)N2C[C@@H](C)N(C(=O)C3(C)CC3)C[C@@H]2c2ccccc2)cnc1N` [Compound 58, N-(6-amino-5-ethylpyridin-3-yl)-2-((2S,5R)-5-methyl-4-(1-methylcyclopropanecarbonyl)-2-phenylpiperazin-1-yl)-2-oxoacetamide], in test [1], the IC50 lay in the range of 0.005 to 0.05 µM, the IC90 was less than 0.075 µM and the “Hap1 MTAP intact/deleted ratio” value was “C (an IC50 ratio of less than 15 fold)”. The IC50 in test [2] was less than 0.1 µM. Moreover, the IC50 in test [3] was more than 0.05 µM.

Turning to `C[C@@H]1CN(C(=O)C(=O)Nc2cnc(N)c(C3CC3)c2)[C@@H](c2ccc(F)c(F)c2)CN1C(=O)C1(C)CC1` [Compound 59, N-(6-amino-5-cyclopropylpyridin-3-yl)-2-((2S,5R)-2-(3,4-difluorophenyl)-5-methyl-4-(1-methylcyclopropanecarbonyl)piperazin-1-yl)-2-oxoacetamide], in test [1], the IC50 is less than 0.005 µM, the 90% effect concentration (IC90) was less than 0.075 µM and the “Hap1 MTAP intact/deleted ratio” value is listed as “B (an IC50 ratio greater than or equal to 15 fold but lower than 30 fold)”. This compound gave an IC50 in test [2] of less than 0.1 µM. Besides, the IC50 in test [3] is more than 0.05 µM.

For the compound `CCc1cc(NC(=O)C(=O)N2C[C@@H](C)N(C(=O)C3(C)CC3)C[C@@H]2c2ccc(F)cc2)cnc1N` [Compound 60, N-(6-amino-5-ethylpyridin-3-yl)-2-((2S,5R)-2-(4-fluorophenyl)-5-methyl-4-(1-methylcyclopropanecarbonyl)piperazin-1-yl)-2-oxoacetamide], in test [1], the IC50 is less than 0.005 µM, the 90% effect concentration (IC90) was less than 0.075 µM and the “Hap1 MTAP intact/deleted ratio” value is “C (an IC50 ratio of less than 15 fold)”. The same compound registered an IC50 in test [2] of less than 0.1 µM. For the same compound, the IC50 in test [3] lay within 0.005 to 0.05 µM.

With `Cc1cc(NC(=O)C(=O)N2C[C@@H](C)N(C(=O)C3(C(F)(F)F)CC3)C[C@@H]2c2cc(Cl)cc(Cl)c2)cnc1N` [Compound 62, N-(6-amino-5-methylpyridin-3-yl)-2-((2S,5R)-2-(3,5-dichlorophenyl)-5-methyl-4-(1-(trifluoromethyl)cyclopropanecarbonyl)piperazin-1-yl)-2-oxoacetamide], the figures for the half-inhibitory concentration (IC50) in test [1], in test [2] and in test [3] were 0.005 to 0.05 µM, less than 0.1 µM and more than 0.05 µM, respectively. In test [1], the IC90 is 0.075 to 0.125 µM. Moreover, the “Hap1 MTAP intact/deleted ratio” value in test [1] is given as “A (an IC50 ratio greater than or equal to 30 fold)”.

The IC50 is the concentration needed to halve the response being measured. In general, IC90 refers to the concentration needed for an effect of 90%.

The values above are taken from patent publication US20250282749A1 (Tango Therapeutics, Inc., priority 2022, published 2025).
